Legend:
BACE1 = BACE1 (Homo sapiens, UniProt P56817); experiment: In vitro enzymatic BACE FRET (fluorescence resonance energy transfer) assay; format: biochemical
Procedure: In Vitro Enzymatic BACE FRET (Fluorescence Resonance Energy Transfer) Assay (Enzyme Assay Data in Table 1)
The assay buffer used in this screen is 0.05 M acetate, pH 4.2, 10% DMSO final, 100 uM genapol (which is a nonionic detergent, below its Critical Micelle Concentration). […] The assay is effectively started by the addition of FRET substrate (50 nM) and the combination is incubated for one hour. The FRET assay is terminated with by addition of Tris buffer, which raises the pH to neutrality, and the fluorescence is determined. The FRET substrate is a peptide with commercially available fluorophore and quencher, on opposite sides of the BACE cleavage site. Proteolytic cleavage of the FRET substrate releases quenching of fluorescence (excitation […] and emission […]).

[1] = test system: Cells stably expressing Amyloid Precursor Protein (APP); experiment: In vitro BACE cell-based assay (HEK cell assay): Aβ40 in conditioned medium by sandwich ELISA; details: Aβ40 in conditioned medium after 24 h incubation
Procedure: In Vitro BACE Cell-Based Assay:
The cell-based assay measures inhibition or reduction of Aβ40 in conditioned medium of test compound treated cells expressing amyloid precursor protein.
Cells stably expressing Amyloid Precursor Protein (APP) were plated at a density of 40K cells/well in 96 well plates (Costar). The cells were cultivated for 24 hours at 37° C. and 5% CO2 in DMEM supplemented with 10% FBS. The test compounds were then added to cells in 10-point dose response concentrations with the starting concentration being either 100 μM or 10 μM. The compounds were diluted from stock solutions in DMSO and the final DMSO concentration of the test compounds on cells was 0.1%. After 24 h of incubation with the test compounds the supernatant conditioned media was collected and the Aβ 40 levels were determined using a sandwich ELISA. The IC50 of the compound was calculated from the percent of control or percent inhibition of Aβ 40 as a function of the concentration of the test compound.
The sandwich ELISA to detect Aβ 40 was performed in 96 well microtiter plates, which were pre-treated with goat anti-rabbit IgG (Pierce). The capture and detecting antibody pair that were used to detect Aβ 40 from cell supernatants were affinity purified pAb40 (Biosource) and biotinylated 6E10 (Signet Labs Inc.), respectively. The optimal concentration for the pAb40 antibody was 3 μg/ml in Superblock/TBS (Pierce) that was supplemented with 0.05% Tween 20 (Sigma). Optimal concentration for the detection antibody 6E10-biotinylated was 0.5 μg/ml in Superblock/TBS (Pierce) that had been supplemented with 2% normal goat serum and 2% normal mouse serum.
Cellular supernatants were incubated with the capture antibody for 3 h at 4° C., followed by 3 wash steps in TBS-tween (0.05%). The detecting antibody incubation was for 2 h at 4° C., again followed by the wash steps as described previously. The final readout of the ELISA is Time-Resolved Fluorescence (counts per minute) using Delfia reagents Streptavidin-Europium and Enhancement solutions (Perkin Elmer) and the Victor 2 multilabel counter (Perkin Elmer).
Of the compounds tested, in-the cell-based assay, data for each of Examples 33-156 is provided in Table 1 and Examples 208-246 are provided in Table 4.

Sequence of BACE1 (P56817 46-501, species assumed): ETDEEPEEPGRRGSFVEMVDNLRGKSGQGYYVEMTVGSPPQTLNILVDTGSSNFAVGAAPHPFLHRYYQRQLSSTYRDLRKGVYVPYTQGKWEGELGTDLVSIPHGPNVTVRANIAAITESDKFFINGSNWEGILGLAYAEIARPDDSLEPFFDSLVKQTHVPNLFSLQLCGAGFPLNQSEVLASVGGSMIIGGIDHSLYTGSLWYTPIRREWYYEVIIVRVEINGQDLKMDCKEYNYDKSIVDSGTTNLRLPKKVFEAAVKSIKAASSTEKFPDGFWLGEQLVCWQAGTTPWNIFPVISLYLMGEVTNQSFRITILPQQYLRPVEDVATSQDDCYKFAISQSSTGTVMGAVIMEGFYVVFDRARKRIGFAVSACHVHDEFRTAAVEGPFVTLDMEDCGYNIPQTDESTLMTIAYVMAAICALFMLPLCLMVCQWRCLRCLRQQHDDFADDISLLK

C=CC[C@H](NC(=O)c1ccc(F)cn1)[C@H](O)CN[C@H]1CC2(CCC2)Oc2ncc(CC(C)(C)C)cc21 [Example 62, N-((1S)-1-((1R)-2-(((4′S)-6′-(2,2-dimethylpropyl)-3′,4′-dihydrospiro[cyclobutane-1,2′-pyrano[2,3-b]pyridin]-4′-yl)amino)-1-hydroxyethyl)-3-buten-1-yl)-5-fluoro-2-pyridinecarboxamide]
IC50 (BACE1): 561 nM
IC50 ([1]; Homo sapiens, HEK293, 24 h): 4980 nM

C=CC[C@H](NC(=O)COC)[C@H](O)CN[C@H]1CC2(CCC2)Oc2c1cc(CC(C)(C)C)nc2N(C)C [Example 48, N-((1S)-1-((1R)-2-(((4′S)-8′-(dimethylamino)-6′-(2,2-dimethylpropyl)-3′,4′-dihydrospiro[cyclobutane-1,2′-pyrano[2,3-c]pyridin]-4′-yl)amino)-1-hydroxyethyl)-3-buten-1-yl)-2-(methyloxy)acetamide]
IC50 (BACE1): 365 nM
IC50 ([1]; Homo sapiens, HEK293, 24 h): 2820 nM

C=CC[C@H](NC(=O)COC)[C@H](O)CN[C@H]1CC2(CCC2)Oc2ncc(CC(C)(C)C#N)cc21 [Example 55, N-((1S)-1-((1R)-2-(((4′S)-6′-(2-cyano-2-methylpropyl)-3′,4′-dihydrospiro[cyclobutane-1,2′-pyrano[2,3-b]pyridin]-4′-yl)amino)-1-hydroxyethyl)-3-buten-1-yl)-2-(methyloxy)acetamide]
IC50 (BACE1): 3400 nM
IC50 ([1]; Homo sapiens, HEK293, 24 h): 7580 nM

C=CC[C@H](NC(=O)OCc1cncs1)[C@H](O)CN[C@H]1CC2(CCC2)Oc2ncc(CC(C)(C)C)cc21 [Example 105, 1,3-thiazol-5-ylmethyl ((1S)-1-((1R)-2-(((4′S)-6′-(2,2-dimethylpropyl)-3′,4′-dihydrospiro[cyclobutane-1,2′-pyrano[2,3-b]pyridin]-4′-yl)amino)-1-hydroxyethyl)-3-buten-1-yl)carbamate]
IC50 (BACE1): 396 nM
IC50 ([1]; Homo sapiens, HEK293, 24 h): 1160 nM

C=CC[C@H](NC(=O)COC)[C@H](O)CN[C@H]1CC2(CCC2)Oc2ncc([C@H](F)C(C)(C)C)cc21 [Example 82, N-((1S)-1-((1R)-2-(((4′S)-6′-((1R)-1-fluoro-2,2-dimethylpropyl)-3′,4′-dihydrospiro[cyclobutane-1,2′-pyrano[2,3-b]pyridin]-4′-yl)amino)-1-hydroxyethyl)-3-buten-1-yl)-2-(methyloxy)acetamide]
IC50 (BACE1): 69 nM
IC50 ([1]; Homo sapiens, HEK293, 24 h): 216 nM

C=CC[C@H](NC(=O)c1ccc(F)cc1)[C@H](O)CN[C@H]1CC2(CCC2)Oc2ncc(CC(C)(C)C)cc21 [Example 58, N-((1S)-1-((1R)-2-(((4′S)-6′-(2,2-dimethylpropyl)-3′,4′-dihydrospiro[cyclobutane-1,2′-pyrano[2,3-b]pyridin]-4′-yl)amino)-1-hydroxyethyl)-3-buten-1-yl)-4-fluorobenzamide]
IC50 (BACE1): 172 nM
IC50 ([1]; Homo sapiens, HEK293, 24 h): 666 nM

C=CCC(NC(C)=O)C(O)CNC1CC2(CC(O)C2)Oc2ccc(Br)cc21 [Example 118, N-((1S)-1-((1R)-2-(((2s,3′S,4S)-6-bromo-3′-hydroxy-3,4-dihydrospiro[chromene-2,1′-cyclobutan]-4-yl)amino)-1-hydroxyethyl)-3-buten-1-yl)acetamide]
IC50 (BACE1): 6060 nM
IC50 [1]: ≥ 10000 nM

C=CCC(NC(C)=O)C(O)CNC1CC2(CC(O)C2)Oc2ccc(CC(C)(C)C)cc21 [Example 115, N-((1S)-1-((1R)-2-(((2s,3′S,4S)-6-(2,2-dimethylpropyl)-3′-hydroxy-3,4-dihydrospiro[chromene-2,1′-cyclobutan]-4-yl)amino)-1-hydroxyethyl)-3-buten-1-yl)acetamide]
IC50 (BACE1): 335 nM
IC50 [1]: 513 nM

C=CCC(NC(=O)C1CCC(=O)O1)C(O)CNC1CC2(CCC2)Oc2cnc(C(F)(F)F)cc21 [Example 119, (S)-N-((2R,3S)-1-((S)-2,2-spirocyclobutyl-6-(trifluoromethyl)-3,4-dihydro-2H-pyrano[2,3-c]pyridin-4-ylamino)-2-hydroxyhex-5-en-3-yl)-5-oxo-tetrahydrofuran-2-carboxamide]
IC50 (BACE1): 9300 nM
IC50 ([1]; Homo sapiens, HEK293, 24 h): ≥ 10000 nM

C=CC[C@H](NC(C)=O)[C@H](O)CN[C@H]1CC2(CCC2)Oc2c1cc(CC(C)(C)C)nc2N(C)C [Example 45, N-((1S)-1-((1R)-2-(((4′S)-8′-(dimethylamino)-6′-(2,2-dimethylpropyl)-3′,4′-dihydrospiro[cyclobutane-1,2′-pyrano[2,3-c]pyridin]-4′-yl)amino)-1-hydroxyethyl)-3-buten-1-yl)acetamide]
IC50 (BACE1): 905 nM
IC50 ([1]; Homo sapiens, HEK293, 24 h): 6340 nM

C=CC[C@H](NC(=O)[C@H](OC)C(C)C)[C@H](O)CN[C@H]1CC2(CCC2)Oc2ncc(CC(C)(C)C)cc21 [Example 150, (2R)-N-((1S)-1-((1R)-2-(((4′S)-6′-(2,2-dimethylpropyl)-3′,4′-dihydrospiro[cyclobutane-1,2′-pyrano[2,3-b]pyridin]-4′-yl)amino)-1-hydroxyethyl)-3-buten-1-yl)-3-methyl-2-(methyloxy)butanamide]
IC50 (BACE1): 2670 nM
IC50 ([1]; Homo sapiens, HEK293, 24 h): 5280 nM

C=CC[C@H](NC(=O)c1ccc(F)c(F)c1F)[C@H](O)CN[C@H]1CC2(CCC2)Oc2ncc(CC(C)(C)C)cc21 [Example 73, N-((1S)-1-((1R)-2-(((4′S)-6′-(2,2-dimethylpropyl)-3′,4′-dihydrospiro[cyclobutane-1,2′-pyrano[2,3-b]pyridin]-4′-yl)amino)-1-hydroxyethyl)-3-buten-1-yl)-2,3,4-trifluorobenzamide]
IC50 (BACE1): 483 nM
IC50 ([1]; Homo sapiens, HEK293, 24 h): 2650 nM

C#CC[C@H](NC(C)=O)[C@H](O)CN[C@H]1CC2(CCC2)Oc2ncc(CC(C)(C)C)cc21 [Example 84, N-((1S)-1-((1R)-2-(((4′S)-6′-(2,2-dimethylpropyl)-3′,4′-dihydrospiro[cyclobutane-1,2′-pyrano[2,3-b]pyridin]-4′-yl)amino)-1-hydroxyethyl)-3-butyn-1-yl)acetamide]
IC50 (BACE1): 40 nM
IC50 ([1]; Homo sapiens, HEK293, 24 h): 222 nM

CC=CC[C@H](NC(=O)[C@H]1CCC(=O)O1)[C@H](O)CN[C@H]1C[C@]2(C[C@H](F)C2)Oc2ncc(CC(C)(C)C)cc21 [Example 108, (2R)-N-((1S)-1-((1R)-2-(((1s,3S,4′S)-6′-(2,2-dimethylpropyl)-3-fluoro-3′,4′-dihydrospiro[cyclobutane-1,2′-pyrano[2,3-b]pyridin]-4′-yl)amino)-1-hydroxyethyl)-3-penten-1-yl)-5-oxotetrahydro-2-furancarboxamide]
IC50 [1]: 95 nM

C=C(C)C[C@H](NC(=O)c1ccc2c(c1)OC(F)(F)O2)[C@H](O)CN[C@H]1CC2(CCC2)Oc2ncc(CC(C)(C)C)cc21 [Example 101, N-((1S)-1-((1R)-2-(((4′S)-6′-(2,2-dimethylpropyl)-3′,4′-dihydrospiro[cyclobutane-1,2′-pyrano[2,3-b]pyridin]-4′-yl)amino)-1-hydroxyethyl)-3-methyl-3-buten-1-yl)-2,2-difluoro-1,3-benzodioxole-5-carboxamide]
IC50 (BACE1): 9880 nM
IC50 ([1]; Homo sapiens, HEK293, 24 h): ≥ 10000 nM

C=CC[C@H](NC(=O)c1c(F)cccc1F)[C@H](O)CN[C@H]1CC2(CCC2)Oc2ncc(CC(C)(C)C)cc21 [Example 72, N-((1S)-1-((1R)-2-(((4′S)-6′-(2,2-dimethylpropyl)-3′,4′-dihydrospiro[cyclobutane-1,2′-pyrano[2,3-b]pyridin]-4′-yl)amino)-1-hydroxyethyl)-3-buten-1-yl)-2,6-difluorobenzamide]
IC50 (BACE1): 276 nM
IC50 ([1]; Homo sapiens, HEK293, 24 h): 3570 nM

C=CC[C@H](NC(=O)[C@@H](C)F)[C@H](O)CN[C@H]1CC2(CCC2)Oc2ncc(CC(C)(C)C)cc21.C=CC[C@H](NC(=O)[C@H](C)F)[C@H](O)CN[C@H]1CC2(CCC2)Oc2ncc(CC(C)(C)C)cc21 [Example 148, (2R)-N-((1S)-1-((1R)-2-(((4′S)-6′-(2,2-dimethylpropyl)-3′,4′-dihydrospiro[cyclobutane-1,2′-pyrano[2,3-b]pyridin]-4′-yl)amino)-1-hydroxyethyl)-3-buten-1-yl)-2-fluoropropanamide; (2S)-N-((1S)-1-((1R)-2-(((4′S)-6′-(2,2-dimethylpropyl)-3′,4′-dihydrospiro[cyclobutane-1,2′-pyrano[2,3-b]pyridin]-4′-yl)amino)-1-hydroxyethyl)-3-buten-1-yl)-2-fluoropropanamide]
IC50 (BACE1): 70 nM
IC50 [1]: 121 nM
